According to patent US10118935B2, “Melampomagnolide B dimers” (priority 2014, dated 2018):

Experiments:
CCRF-CEM = assay: NCI 60 cell line five dose, Leukemia
K-562 = assay: NCI 60 cell line five dose, Leukemia
RPMI-8226 = assay: NCI 60 cell line five dose, Leukemia
SR = assay: NCI 60 cell line five dose, Leukemia
LOX IMVI = assay: NCI 60 cell line five dose, Melanoma
M14 = assay: NCI 60 cell line five dose, Melanoma
SK-MEL-2 = assay: NCI 60 cell line five dose, Melanoma
UACC-62 = assay: NCI 60 cell line five dose, Melanoma
SF-295 = assay: NCI 60 cell line five dose, CNS Cancer
HCC-2998 = assay: NCI 60 cell line five dose, Colon Cancer
KM12 = assay: NCI 60 cell line five dose, Colon Cancer
SW-620 = assay: NCI 60 cell line five dose, Colon Cancer
786-0 = assay: NCI 60 cell line five dose, Renal Cancer
A498 = assay: NCI 60 cell line five dose, Renal Cancer
RXF 393 = assay: NCI 60 cell line five dose, Renal Cancer
HS 578T = assay: NCI 60 cell line five dose, Breast Cancer; details: for Percent Growth: HS578T
BT-549 = assay: NCI 60 cell line five dose, Breast Cancer
MDA-MB-468 = assay: NCI 60 cell line five dose, Breast Cancer
OVCAR-5 = assay: NCI 60 cell line five dose, Ovarian Cancer
OVCAR-8 = assay: NCI 60 cell line five dose, Ovarian Cancer
PC-3 = assay: NCI 60 cell line five dose, Prostate Cancer
A549/ATCC = assay: NCI 60 cell line five dose, Non-Small Cell Lung Cancer
NCI-H23 = assay: as above

## C=C1C(=O)O[C@H]2[C@H]1CC/C(COC(=O)NCCCCNC(=O)OC/C1=C/CC[C@@]3(C)O[C@H]3[C@H]3OC(=O)C(=C)[C@@H]3CC1)=C\CC[C@@]1(C)O[C@@H]21 [JVM 3-54, bis(((1aR,7aS,10aS,10bS,E)-1a-Methyl-8-methylene-9-oxo-1a,2,3,6,7,7a,8,9,10a,10b-decahydrooxireno[2′,3′:9,10]cyclodeca[1,2-b]furan-5-yl)methyl)butane-1,4-diyldicarbamate]
CCRF-CEM
  GI50: 0.272 µM
  TGI: 0.845 µM
CCRF-CEM; Log10 Concentration −4.0
  Percent Growth: −50%
CCRF-CEM; Log10 Concentration −5.0
  Percent Growth: −46%
CCRF-CEM; Log10 Concentration −6.0
  Percent Growth: −7%
CCRF-CEM; Log10 Concentration −7.0
  Percent Growth: 94%
CCRF-CEM; Log10 Concentration −8.0
  Percent Growth: 98%
CCRF-CEM; read-out: LC50
  CC50: > 100 µM
K-562
  GI50: 0.665 µM
  TGI: 10.4 µM
K-562; Log10 Concentration −4.0
  Percent Growth: −46%
K-562; Log10 Concentration −5.0
  Percent Growth: 1%
K-562; Log10 Concentration −6.0
  Percent Growth: 40%
K-562; Log10 Concentration −7.0
  Percent Growth: 96%
K-562; Log10 Concentration −8.0
  Percent Growth: 101%
K-562; read-out: LC50
  CC50: > 100 µM
RPMI-8226
  GI50: 0.547 µM
  TGI: 3.08 µM
RPMI-8226; Log10 Concentration −4.0
  Percent Growth: −42%
RPMI-8226; Log10 Concentration −5.0
  Percent Growth: −33%
RPMI-8226; Log10 Concentration −6.0
  Percent Growth: 31%
RPMI-8226; Log10 Concentration −7.0
  Percent Growth: 102%
RPMI-8226; Log10 Concentration −8.0
  Percent Growth: 101%
RPMI-8226; read-out: LC50
  CC50: > 100 µM
SR
  GI50: 0.549 µM
  TGI: 3.51 µM
SR; Log10 Concentration −4.0
  Percent Growth: −34%
SR; Log10 Concentration −5.0
  Percent Growth: −29%
SR; Log10 Concentration −6.0
  Percent Growth: 35%
SR; Log10 Concentration −7.0
  Percent Growth: 94%
SR; Log10 Concentration −8.0
  Percent Growth: 93%
SR; read-out: LC50
  CC50: > 100 µM
LOX IMVI
  GI50: 0.519 µM
  TGI: 1.92 µM
LOX IMVI; Log10 Concentration −4.0
  Percent Growth: −74%
LOX IMVI; Log10 Concentration −5.0
  Percent Growth: −84%
LOX IMVI; Log10 Concentration −6.0
  Percent Growth: 33%
LOX IMVI; Log10 Concentration −7.0
  Percent Growth: 93%
LOX IMVI; Log10 Concentration −8.0
  Percent Growth: 93%
LOX IMVI; read-out: LC50
  CC50: 5.15 µM
M14
  GI50: 1.97 µM
  TGI: 4.82 µM
M14; Log10 Concentration −4.0
  Percent Growth: −84%
M14; Log10 Concentration −5.0
  Percent Growth: −41%
M14; Log10 Concentration −6.0
  Percent Growth: 88%
M14; Log10 Concentration −7.0
  Percent Growth: 88%
M14; Log10 Concentration −8.0
  Percent Growth: 94%
M14; read-out: LC50
  CC50: 16.3 µM
SK-MEL-2
  GI50: 1.77 µM
  TGI: 4.89 µM
SK-MEL-2; Log10 Concentration −4.0
  Percent Growth: −67%
SK-MEL-2; Log10 Concentration −5.0
  Percent Growth: −35%
SK-MEL-2; Log10 Concentration −6.0
  Percent Growth: 78%
SK-MEL-2; Log10 Concentration −7.0
  Percent Growth: 89%
SK-MEL-2; Log10 Concentration −8.0
  Percent Growth: 101%
SK-MEL-2; read-out: LC50
  CC50: 29.3 µM
UACC-62
  GI50: 0.753 µM
  TGI: 2.5 µM
UACC-62; Log10 Concentration −4.0
  Percent Growth: −86%
UACC-62; Log10 Concentration −5.0
  Percent Growth: −67%
UACC-62; Log10 Concentration −6.0
  Percent Growth: 44%
UACC-62; Log10 Concentration −7.0
  Percent Growth: 93%
UACC-62; Log10 Concentration −8.0
  Percent Growth: 95%
UACC-62; read-out: LC50
  CC50: 7.06 µM
SF-295
  GI50: 13 µM
  TGI: 27.4 µM
SF-295; Log10 Concentration −4.0
  Percent Growth: −87%
SF-295; Log10 Concentration −5.0
  Percent Growth: 68%
SF-295; Log10 Concentration −6.0
  Percent Growth: 98%
SF-295; Log10 Concentration −7.0
  Percent Growth: 89%
SF-295; Log10 Concentration −8.0
  Percent Growth: 92%
SF-295; read-out: LC50
  CC50: 57.7 µM
HCC-2998
  GI50: 2.35 µM
  TGI: 4.78 µM
HCC-2998; Log10 Concentration −4.0
  Percent Growth: −78%
HCC-2998; Log10 Concentration −5.0
  Percent Growth: −52%
HCC-2998; Log10 Concentration −6.0
  Percent Growth: 110%
HCC-2998; Log10 Concentration −7.0
  Percent Growth: 99%
HCC-2998; Log10 Concentration −8.0
  Percent Growth: 97%
HCC-2998; read-out: LC50
  CC50: 9.73 µM
KM12
  GI50: 3.18 µM
  TGI: 10.5 µM
KM12; Log10 Concentration −4.0
  Percent Growth: −80%
KM12; Log10 Concentration −5.0
  Percent Growth: 2%
KM12; Log10 Concentration −6.0
  Percent Growth: 99%
KM12; Log10 Concentration −7.0
  Percent Growth: 100%
KM12; Log10 Concentration −8.0
  Percent Growth: 102%
KM12; read-out: LC50
  CC50: 43.3 µM
SW-620
  GI50: 0.586 µM
  TGI: 2.04 µM
SW-620; Log10 Concentration −4.0
  Percent Growth: −72%
SW-620; Log10 Concentration −5.0
  Percent Growth: −79%
SW-620; Log10 Concentration −6.0
  Percent Growth: 35%
SW-620; Log10 Concentration −7.0
  Percent Growth: 98%
SW-620; Log10 Concentration −8.0
  Percent Growth: 100%
SW-620; read-out: LC50
  CC50: 5.56 µM
786-0
  GI50: 1.99 µM
  TGI: 4.25 µM
786-0; Log10 Concentration −4.0
  Percent Growth: −91%
786-0; Log10 Concentration −5.0
  Percent Growth: −56%
786-0; Log10 Concentration −6.0
  Percent Growth: 95%
786-0; Log10 Concentration −7.0
  Percent Growth: 91%
786-0; Log10 Concentration −8.0
  Percent Growth: 98%
786-0; read-out: LC50
  CC50: 9.11 µM
A498
  GI50: 6.36 µM
  TGI: 18.9 µM
A498; Log10 Concentration −4.0
  Percent Growth: −99%
A498; Log10 Concentration −5.0
  Percent Growth: 38%
A498; Log10 Concentration −6.0
  Percent Growth: 99%
A498; Log10 Concentration −7.0
  Percent Growth: 94%
A498; Log10 Concentration −8.0
  Percent Growth: 97%
A498; read-out: LC50
  CC50: 43.9 µM
RXF 393
  GI50: 1.44 µM
  TGI: 3.36 µM
RXF 393; Log10 Concentration −4.0
  Percent Growth: −100%
RXF 393; Log10 Concentration −5.0
  Percent Growth: −64%
RXF 393; Log10 Concentration −6.0
  Percent Growth: 71%
RXF 393; Log10 Concentration −7.0
  Percent Growth: 95%
RXF 393; Log10 Concentration −8.0
  Percent Growth: 100%
RXF 393; read-out: LC50
  CC50: 7.84 µM
HS 578T; HS 578T
  GI50: 2.54 µM
  TGI: 8.14 µM
HS 578T; Log10 Concentration −4.0
  Percent Growth: −27%
HS 578T; Log10 Concentration −5.0
  Percent Growth: −9%
HS 578T; Log10 Concentration −6.0
  Percent Growth: 90%
HS 578T; Log10 Concentration −7.0
  Percent Growth: 92%
HS 578T; Log10 Concentration −8.0
  Percent Growth: 90%
BT-549
  GI50: 1.6 µM
  TGI: 3.63 µM
BT-549; Log10 Concentration −4.0
  Percent Growth: −98%
BT-549; Log10 Concentration −5.0
  Percent Growth: −62%
BT-549; Log10 Concentration −6.0
  Percent Growth: 79%
BT-549; Log10 Concentration −7.0
  Percent Growth: 91%
BT-549; Log10 Concentration −8.0
  Percent Growth: 100%
MDA-MB-468
  GI50: 0.426 µM
  TGI: 2 µM
MDA-MB-468; Log10 Concentration −4.0
  Percent Growth: −69%
MDA-MB-468; Log10 Concentration −5.0
  Percent Growth: −59%
MDA-MB-468; Log10 Concentration −6.0
  Percent Growth: 26%
MDA-MB-468; Log10 Concentration −7.0
  Percent Growth: 91%
MDA-MB-468; Log10 Concentration −8.0
  Percent Growth: 92%
MDA-MB-468; read-out: LC50
  CC50: 7.76 µM
OVCAR-5
  GI50: 1.75 µM
  TGI: 3.69 µM
OVCAR-5; Log10 Concentration −4.0
  Percent Growth: −72%
OVCAR-5; Log10 Concentration −5.0
  Percent Growth: −67%
OVCAR-5; Log10 Concentration −6.0
  Percent Growth: 87%
OVCAR-5; Log10 Concentration −7.0
  Percent Growth: 92%
OVCAR-5; Log10 Concentration −8.0
  Percent Growth: 95%
OVCAR-5; read-out: LC50
  CC50: 7.79 µM
OVCAR-8
  GI50: 2.18 µM
  TGI: 8.26 µM
OVCAR-8; Log10 Concentration −4.0
  Percent Growth: −78%
OVCAR-8; Log10 Concentration −5.0
  Percent Growth: −7%
OVCAR-8; Log10 Concentration −6.0
  Percent Growth: 79%
OVCAR-8; Log10 Concentration −7.0
  Percent Growth: 99%
OVCAR-8; Log10 Concentration −8.0
  Percent Growth: 99%
OVCAR-8; read-out: LC50
  CC50: 40.2 µM
PC-3
  GI50: 2.55 µM
  TGI: 8.05 µM
PC-3; Log10 Concentration −4.0
  Percent Growth: −93%
PC-3; Log10 Concentration −5.0
  Percent Growth: −9%
PC-3; Log10 Concentration −6.0
  Percent Growth: 91%
PC-3; Log10 Concentration −7.0
  Percent Growth: 99%
PC-3; Log10 Concentration −8.0
  Percent Growth: 99%
PC-3; read-out: LC50
  CC50: 30.5 µM
A549/ATCC
  GI50: 8.02 µM
  TGI: 23.1 µM
A549/ATCC; Log10 Concentration −4.0
  Percent Growth: −79%
A549/ATCC; Log10 Concentration −5.0
  Percent Growth: 45%
A549/ATCC; Log10 Concentration −6.0
  Percent Growth: 99%
A549/ATCC; Log10 Concentration −7.0
  Percent Growth: 99%
A549/ATCC; Log10 Concentration −8.0
  Percent Growth: 100%
A549/ATCC; read-out: LC50
  CC50: 58.7 µM
NCI-H23
  GI50: 2.18 µM
  TGI: 5.54 µM
NCI-H23; Log10 Concentration −4.0
  Percent Growth: −70%
NCI-H23; Log10 Concentration −5.0
  Percent Growth: 32%
NCI-H23; Log10 Concentration −6.0
  Percent Growth: 92%
NCI-H23; Log10 Concentration −7.0
  Percent Growth: 95%
NCI-H23; Log10 Concentration −8.0
  Percent Growth: 95%
NCI-H23; read-out: LC50
  CC50: 30.4 µM
